Structure (SMILES)	melting point
CCOC(=O)C1=C(C)NC(c2ncccc2F)=NC1c1c(F)cccc1F (stereo not drawn)	140 to 142 °C
CCOC(=O)C1=C(C)NC(c2ncccc2F)=NC1c1ccc(Br)cc1F (stereo not drawn)	156 to 158 °C
CC1=C(C(=O)OCCOc2ccccc2)C(c2ccccc2Cl)N=C(c2ncccc2F)N1 (stereo not drawn)	123 to 125 °C
COC(=O)C1=C(C)NC(c2ncccc2F)=NC1c1cccc2ncc(-c3ccccc3)cc12 (stereo not drawn)	174 to 175 °C
COC(=O)C1=C(C)NC(c2ncccc2F)=NC1c1ccccc1 (stereo not drawn)	110 to 111 °C
COC(=O)C1=C(C)NC(c2ccc(Cl)cn2)=NC1c1ccccc1Cl (stereo not drawn)	163 to 165 °C
CCOC(=O)C1=C(C)NC(c2ncccc2F)=NC1c1ccc(Br)cc1 (stereo not drawn)	134 to 135 °C
C=CCOC(=O)C1=C(C)NC(c2ncccc2F)=NC1c1ccccc1Cl (stereo not drawn)	124 to 126 °C
COC(=O)C1=C(C)NC(c2ncccc2F)=NC1c1cc([N+](=O)[O-])c(Cl)cc1F (stereo not drawn)	135 to 136 °C
COC(=O)C1=C(C2CC2)NC(c2ncccc2F)=NC1c1ccccc1Cl (stereo not drawn)	120 to 122 °C
CCOC(=O)C1=C(C)NC(c2ncccc2Cl)=NC1c1ccccc1Br (stereo not drawn)	137 to 138 °C
CCOC(=O)C1=C(C)NC(c2ccc(OC)cn2)=NC1c1ccc(F)cc1Cl (stereo not drawn)	141 °C
CCOC(=O)C1=C(C)NC(c2ncccc2F)=NC1c1ccc(Cl)cc1 (stereo not drawn)	133 to 134 °C
COC(=O)C1=C(C)NC(c2cccc(C)n2)=NC1c1ccccc1Cl (stereo not drawn)	142 to 143 °C
COC(=O)C1=C(C)NC(c2ccc(C(F)(F)F)cn2)=NC1c1ccccc1Cl (stereo not drawn)	121 to 123 °C
CCOC(=O)C1=C(C)NC(c2ncccc2F)=NC1c1ccc(Cl)cc1[N+](=O)[O-] (stereo not drawn)	184 to 186 °C
CCOC(=O)C1=C(C)NC(c2ncccc2F)=NC1c1cc(Cl)cc(Cl)c1 (stereo not drawn)	133 to 134 °C
CCOC(=O)C1=C(C)NC(c2ncccc2F)=NC1c1ccc(F)cc1 (stereo not drawn)	129 to 130 °C
CCOC(=O)C1=C(C)NC(c2ncccc2F)=NC1c1ccccc1I (stereo not drawn)	163 to 164 °C
COC(=O)C1=C(C)NC(c2ncccc2F)=NC1c1ccc([N+](=O)[O-])cc1 (stereo not drawn)	142 to 143 °C
COC(=O)C1=C(C)NC(c2ncccc2F)=NC1c1ccc(Br)cc1 (stereo not drawn)	156 to 157 °C
CCOC(=O)C1=C(C)NC(c2ncccc2F)=NC1c1ccc(I)cc1 (stereo not drawn)	145 to 146 °C
COC(=O)C1=C(C)NC(c2ncccc2F)=NC1c1ccccc1C(F)(F)F (stereo not drawn)	165 to 167 °C

Second part, the compound after the results:

melting point	Structure (SMILES)
148 to 149 °C	CCOC(=O)C1=C(C)NC(c2ncccc2F)=NC1c1c(Cl)cccc1Cl (stereo not drawn)
131 °C	COC(=O)C1=C(C)NC(c2ccc(F)cn2)=NC1c1ccc(F)cc1Cl (stereo not drawn)
127 to 129 °C	COC(=O)C1=C(C)NC(c2ncccc2F)=NC1c1ccc(F)cc1 (stereo not drawn)
138 to 140 °C	CCOC(=O)C1=C(C)NC(c2ncccc2Cl)=NC1c1ccccc1Cl (stereo not drawn)
120 to 122 °C	COC(=O)C1=C(C)NC(c2ncccc2F)=NC1c1ccc(Cl)cc1F (stereo not drawn)
124 °C	CCOC(=O)C1=C(C)NC(c2ccc(F)cn2)=NC1c1ccc(F)cc1Cl (stereo not drawn)
132 °C	COC(=O)C1=C(C)NC(c2cc(OC)ccn2)=NC1c1ccc(F)cc1Cl (stereo not drawn)
210 to 212 °C	COC(=O)C1=C(C)NC(c2ncccc2F)=NC1c1ccccc1Cl.Cl (stereo not drawn)
131 to 132 °C	COC(=O)C1=C(C)NC(c2ncccc2Cl)=NC1c1ccccc1Br (stereo not drawn)
180 to 182 °C	COC(=O)C1=C(C)NC(c2ncccc2F)=NC1c1c(Cl)cccc1Cl (stereo not drawn)
144 to 146 °C	COC(=O)C1=C(C)NC(c2ncccc2Cl)=NC1c1ccccc1Cl (stereo not drawn)
95 to 96 °C	COC(=O)C1=C(C)NC(c2ncccc2Cl)=NC1c1ccc(F)cc1Cl (stereo not drawn)
135 to 137 °C	COC(=O)C1=C(C)NC(c2ncccc2F)=NC1c1ccc(Cl)c([N+](=O)[O-])c1 (stereo not drawn)
139 to 140 °C	COC(=O)C1=C(C)NC(c2ncccc2F)=NC1c1ccc(Cl)cc1 (stereo not drawn)
247 to 248 °C	CCOC(=O)C1=C(C)NC(c2ncccc2F)=NC1c1ccc(O)cc1Cl (stereo not drawn)
126 to 127 °C	CCOC(=O)C1=C(C)NC(c2ncccc2Cl)=NC1c1ccc(Br)cc1F (stereo not drawn)
162 to 163 °C	CCOC(=O)C1=C(C)NC(c2ncccc2F)=NC1c1ccc(Cl)cc1F (stereo not drawn)
121 to 123 °C	COC(=O)C1=C(C)NC(c2ncccc2F)=NC1c1ccc(F)cc1Cl (stereo not drawn)
103 to 104 °C	COC(=O)C1=C(C)NC(c2ncccc2Cl)=NC1c1ccc(Br)cc1F (stereo not drawn)
167 to 169 °C	CCOC(=O)C1=C(C)NC(c2ncccc2F)=NC1c1ccc(F)cc1C (stereo not drawn)
143 to 144 °C	COC(=O)C1=C(C)NC(c2ncccc2F)=NC1c1ccccc1Br (stereo not drawn)
132 to 133 °C	CC(=O)C1=C(C)NC(c2ncccc2F)=NC1c1ccccc1Cl (stereo not drawn)

Source: US6696451B1 (dated 2004)
